Laboratory results as given in patent publication US7829283B2, “Methylation of estrogen receptor alpha and uses thereof” (John Wayne Cancer Institute, priority 2006, dated 2010).

Legend:
[1] = tested on: ER-α mRNA expression in MCA melanoma cell line; assay: ER-α mRNA re-expression by RT-PCR in melanoma cell lines after 5-Aza and TSA treatment; format: cell-based, human; conditions: data not shown
Procedure: To confirm down-regulation of ER-α expression by hypermethylation of the ER-α promoter region, cell lines were treated with the DNA-demethylating agent, 5-Aza, and the HDAC inhibitor, TSA. In combination with 5-Aza treatment, TSA can up-regulate the mRNA expression of genes silenced due to hypermethylation (26, 27). The MCF-7 cell line was used as an ER-α positive control and the MCA cell line was used as an ER-α negative control. Cell lines were maintained in RPMI 1640 medium supplemented with heat-inactivated 10% fetal bovine serum (FBS), penicillin G, and streptomycin (100 U/ml). Cells were treated with 1000 nM TSA for 24 hr (Wako Biochemicals, Osaka, Japan) and 1000 nM 5-Aza for five days (Sigma Chemical Co., St Louis, Mo.). After treatment with 5-Aza and TSA, melanoma cells were washed with phosphate buffered saline (PBS) and harvested with 0.25% trypsin-0.53 mM EDTA (Gibco, Auckland, N.J.). The mRNA expression level of ER-α was assessed by RT-PCR before and after 5-Aza and TSA treatment. […] The RNA was quantified and assessed for purity using ultraviolet spectrophotometry and the RIBOGreen detection assay (Molecular Probes, Eugene, Oreg.). The expression of mRNA for GAPDH, an internal reference housekeeping gene, was assessed by RT-PCR on all RNA samples to verify the integrity of RNA and to indicate equal loading of PCR products for gel electrophoresis. […]

melanoma cells = conditions: in vitro experiments; cited from earlier work
advanced melanoma = conditions: chemotherapy and BC regimens; cited from earlier work

Structure (SMILES)	ER-α mRNA expression, single agent versus need for the second agent [1]	growth inhibition of melanoma cells in vitro (melanoma cells)	overall survival in advanced melanoma (advanced melanoma)
Nc1ncn([C@H]2C[C@H](O)[C@@H](CO)O2)c(=O)n1 [5-Aza, 5-aza-2-deoxycytidine]	did not significantly increase	–	–
CC(/C=C/C(=O)NO)=C\[C@@H](C)C(=O)c1ccc(N(C)C)cc1 [TSA, trichostatin A]	necessary to significantly increase expression above pretreatment levels	–	–
CC/C(=C(\c1ccccc1)c1ccc(OCCN(C)C)cc1)c1ccccc1 [tamoxifen]	–	effective growth inhibitor	has not been shown to significantly improve overall survival
